These are literature values, as cited in patent US4701458A (priority 1985, dated 1987).

Molecules are shown by their SMILES.

The subject of one series is ST. The following applies: cited from earlier work.
Series [1] has as its system intestinal fluid secretion. The following applies: in vivo; cited from earlier work.
The next series has as its system guanylate cyclase. The following applies: cited from earlier work.

Regarding `OCCS` [2-mercaptoethanol], in the series with ST, the “effect on biological activity of ST (in words)” value is “loses biological activity promptly”.
Take `COc1ccc(O)c(C(C)(C)C)c1` [Butylated hydroxyanisole]: the “effect on ST-induced intestinal fluid secretion (in words)” value in series [1] is reported as “significantly reduces”. Besides, in the series with guanylate cyclase, the “effect on ST activation of guanylate cyclase (in words)” value was “significantly reduces”.
Take `NO` [hydroxylamine]: in series [1], the “effect on intestinal ion transport (in words)” value is “causes intestinal ion transport alterations similar to those seen with ST”. For the same compound, the “effect on guanylate cyclase (in words)” value in the series on guanylate cyclase is “activates guanylate cyclase”.
